Test results published in the supplement of paper PMC10307832.

What was measured:
Experiment in all cases: relative viability (nuclei count vs DMSO), 5 days (fraction); higher = more cells survive
[1] = compound: C1=CC2=C(C=C(C(=C2N=C1)O)N=NC3=CC4=C(C=C3)C=C(C=C4)S(=O)(=O)O)S(=O)(=O)O + CC(=O)c1c(C)c2cnc(Nc3ccc(N4CCNCC4)cn3)nc2n(C2CCCC2)c1=O [Palbociclib] (partner 0.5 µM)
Outline: (§1)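 For relative viability, nuclei counts in treated wells were divided by those in vehicle wells. Lung cancer cell lines had been pin-tool dosed in 1536-well plates the day after seeding and cultured for 5 days, then fixed and stained in one step (final 0.05% Triton X-100, 1% formaldehyde, 1 ug/ml Hoechst) and imaged at 4×. Doses were one drug alone or a fixed anchor-drug dose plus five library-drug doses (not always all listed) in √10 steps, and values are duplicate-plate medians.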

[2] = compound: C1=CC2=C(C=C(C(=C2N=C1)O)N=NC3=CC4=C(C=C3)C=C(C=C4)S(=O)(=O)O)S(=O)(=O)O + CC1(C)CCC(c2ccc(Cl)cc2)=C(CN2CCN(c3ccc(C(=O)NS(=O)(=O)c4ccc(N[C@H](CCN5CCOCC5)CSc5ccccc5)c(S(=O)(=O)C(F)(F)F)c4)cc3)CC2)C1 [Navitoclax] (partner 0.5 µM)
Outline: as §1

AT-7519 + Crizotinib = compound: O=C(NC1CCNCC1)c1n[nH]cc1NC(=O)c1c(Cl)cccc1Cl [AT-7519] + C[C@@H](Oc1cc(-c2cnn(C3CCNCC3)c2)cnc1N)c1c(Cl)ccc(F)c1Cl [Crizotinib] (partner 1 µM)
Outline: as §1

AT-7519 + Linsitinib = compound: O=C(NC1CCNCC1)c1n[nH]cc1NC(=O)c1c(Cl)cccc1Cl [AT-7519] + C[C@]1(O)C[C@@H](c2nc(-c3ccc4ccc(-c5ccccc5)nc4c3)c3c(N)nccn32)C1 [Linsitinib] (partner 1 µM)
Outline: as §1

Cell Line	relative viability ([1]; first compound 0.08 µM)	relative viability ([1]; first compound 0.253 µM)	relative viability ([1]; first compound 0.8 µM)	relative viability ([1]; first compound 2.53 µM)	relative viability ([1]; first compound 8 µM)	relative viability ([2]; first compound 0.08 µM)	relative viability ([2]; first compound 0.253 µM)	relative viability ([2]; first compound 0.8 µM)	relative viability ([2]; first compound 2.53 µM)	relative viability ([2]; first compound 8 µM)	relative viability (AT-7519 + Crizotinib; first compound 0.01 µM)	relative viability (AT-7519 + Crizotinib; first compound 0.03162 µM)	relative viability (AT-7519 + Crizotinib; first compound 0.3162 µM)	relative viability (AT-7519 + Crizotinib; first compound 1 µM)	relative viability (AT-7519 + Linsitinib; first compound 0.01 µM)	relative viability (AT-7519 + Linsitinib; first compound 0.03162 µM)	relative viability (AT-7519 + Linsitinib; first compound 0.3162 µM)	relative viability (AT-7519 + Linsitinib; first compound 1 µM)
201T	0.385	0.366	0.366	0.366	0.35	1.24	1.21	1.22	1.27	1.16	1.04	1.1	1.03	1.09	0.933	1.04	1.06	1.05
A549	–	–	–	–	–	1.18	1.16	1.27	1.17	0.934	0.635	0.867	0.55	0.25	0.658	0.552	0.629	0.39
A-427	0.525	0.547	0.512	0.541	0.482	1.06	1.04	0.83	1.12	1.02	0.931	0.823	0.964	0.576	1.13	1.12	1.13	0.81
ABC-1	0.756	0.647	0.659	0.91	0.761	–	–	–	–	–	1.06	1.35	0.591	0.183	0.784	0.715	0.788	0.243
Calu-6	–	–	–	–	–	0.848	0.916	0.769	0.952	0.802	0.928	0.855	0.677	0.141	1.05	0.942	1.07	0.772
ChaGo-K-1	0.974	0.948	0.931	0.903	0.853	0.933	0.955	0.968	1.06	1	1.08	1.12	0.792	0.743	–	–	–	–
EBC-1	–	–	–	–	–	0.394	0.474	0.415	0.452	0.371	0.198	0.228	0.191	0.153	0.935	1.01	0.938	0.934
IA-LM	–	–	–	–	–	0.769	0.885	0.819	0.75	0.694	1.02	1.03	0.573	0.0695	0.765	0.491	0.442	0.548
LCLC-103H	0.457	0.465	0.484	0.487	0.433	–	–	–	–	–	1.05	1.08	0.999	1.27	0.955	1.04	1.1	1.13
NCI-H358	0.138	0.134	0.166	0.134	0.135	–	–	–	–	–	0.544	0.544	0.458	0.0912	0.733	0.592	0.347	0.157
NCI-H522	0.957	0.981	0.934	0.849	0.923	–	–	–	–	–	–	–	–	–	–	–	–	–
NCI-H596	–	–	–	–	–	0.946	0.973	1.06	0.964	1.01	0.828	0.962	1.05	0.87	1.04	0.91	0.973	0.897
NCI-H650	0.35	0.357	0.335	0.317	0.335	–	–	–	–	–	0.788	0.797	0.733	0.625	0.854	0.791	1.04	0.693
NCI-H661	0.4	0.407	0.44	0.443	0.421	–	–	–	–	–	0.978	1.22	1.16	1.04	0.46	0.513	0.538	0.343
NCI-H1299	–	–	–	–	–	1.09	1.05	0.976	1.08	1.06	1.03	0.997	0.947	0.31	1.1	0.96	0.946	0.645
NCI-H1395	0.692	0.614	0.616	0.572	0.628	1.4	1.26	1.23	1.27	0.924	–	–	–	–	1.12	1.01	0.978	0.603
NCI-H1563	–	–	–	–	–	–	–	–	–	–	0.857	0.809	1.02	0.702	1.2	1.25	1.25	1
NCI-H1648	–	0.29	–	–	0.301	–	–	–	–	–	–	–	–	–	–	–	–	–
NCI-H1650	0.369	0.302	0.301	0.328	0.308	1.36	1.27	1.28	1.2	1.12	1.26	0.956	0.576	0.169	–	–	–	–
NCI-H1703	–	–	–	–	–	1.02	1.16	1.12	1.27	1.13	0.585	0.59	0.508	0.0921	0.854	0.835	0.379	0.149
NCI-H1793	0.352	0.327	0.283	0.3	0.271	0.48	0.364	–	0.545	0.557	–	–	–	–	1.06	0.945	0.74	0.684
NCI-H2170	0.469	0.401	0.393	0.438	0.402	0.628	0.477	0.544	0.637	0.707	1.16	1.26	1.18	1.18	–	–	–	–
NCI-H2342	0.576	0.538	0.532	0.6	0.542	–	–	–	–	–	–	–	–	–	–	–	–	–
SW 900	0.53	0.58	0.477	0.648	0.579	–	–	–	–	–	–	–	–	–	–	–	–	–
